Values quoted from earlier work in patent publication US20100273258A1, “Interactive Microenvironment System” (The Ohio State University, priority 2009, published 2010).

Experiments:
[1] = system: human breast cancer cell lines
[2] = system: DNA methylation of cancer suppressor genes; conditions: versus 5-Aza-2′-deoxycystidine and Trichostatin A (TSA)

SMILES | anti-proliferative effects ([1]; MCF-7, MCF-7Adr and MDA-MB-231 human breast cancer cell lines) | demethylating agent compared with clinical drugs [2] | anti-human breast cancer proliferative potency relative to racemic (±)-GP ([1]; previously published data) [fold]
Cc1cc2c(C(C)C)c(O)c(O)c(C=O)c2c(O)c1-c1c(C)cc2c(C(C)C)c(O)c(O)c(C=O)c2c1O (racemic) [(±)-GP] | anti-proliferative effects | – | –
Cc1cc2c(C(C)C)c(O)c(O)c(C=O)c2c(O)c1-c1c(C)cc2c(C(C)C)c(O)c(O)c(C=O)c2c1O [(−)-GP] | – | much better demethylating agent | 10
